Results: patent US20120058953A1, “COMPOSITIONS AND METHODS FOR ENHANCING APOPTOSIS” (Genentech, Inc., priority 2003, published 2012)
Read-outs that look alike come from different tables or passages of the source. Non-standard residues stand in square brackets, D forms with d. Residues, ends and D or L forms follow the SMILES beside them. No end group written: not given here. Phe(4-SO3H) = N[C@@H](Cc1ccc(S(=O)(=O)O)cc1)C(=O)O; Phe(4-I) = N[C@@H](Cc1ccc(I)cc1)C(=O)O; Phe(ol) = N[C@H](CO)Cc1ccccc1

Experiments:
[1] = target: T1, XIAP-BIR2 (Homo sapiens, UniProt P98170, C202A/C213G); experiment: fluorescence polarization competition assay, XIAP-BIR2; format: binding
T1 construct: X-IAP BIR2 (amino acid residues 124-240 with mutations C202A and C213G); made in house; host or cells: Escherichia coli BL21 (DE3)
Method: (§1) The apparent Kd values can be determined from the EC50 values.
(§2) The vectors pET15b-XIAPBIR2C202AC218G, pET15b-XIAPBIR3, and pET15b-MLIAPBIR were introduced into Escherichia coli strain BL21 (DE3). Overnight cultures were diluted 1:100 and grown at 30° C. in LB media with […] to an A600 of 0.5-0.7 with vigorous shaking. Isopropyl b-D-thiogalactoside (IPTG) was added to a final concentration of 1 mM and cultures were grown for 4 hours at 30° C. One litre of frozen cell pellet was resuspended in 100 ml Buffer A (50 mM Tris [pH 8.0], 300 mM NaCl, 5 mM b-mercaptoethanol, 0.5 mM PMSF, 2 mM benzamidine) with 5 mM imidazole and placed on ice for 30 minutes. Cells were lysed by homogenizing followed by repeated passes through a microfluidizer. Lysate was cleared by centrifugation at 15,000 rpm for 30 minutes. The supernatant was loaded onto a Ni-agarose column (Qiagen), washed with 10 column volumes Buffer A with 10 mM imidazole, and eluted with 10 column volumes Buffer A with 300 mM imidazole. Fractions containing BIR protein were pooled. Final concentrations of 5 mM DTT and 100 mM zinc acetate were added. The pool was concentrated and loaded on a Superdex 75™ (Pharmacia) sizing column. Protein eluted over one column volume into 50 mM Tris 8.0, 300 mM NaCl, 0.5 mM PMSF, 2 mM benzamidine, 5 mM DTT, 50 mM zinc acetate, 1 mM sodium azide. Fractions containing BIR protein were pooled and dialyzed against 4 changes of buffer containing 50 mM Tris (pH 8.0), 120 mM NaCl, 5 mM DTT, 0.5 mM PMSF, 2 mM benzamidine, 50 mM zinc acetate, 1 mM sodium azide. Protein was concentrated and stored at −80° C. for further characterization.
(§3) The apparent Kd values were determined from the EC50 values. […] Samples were read after a 10-minute incubation.

[2] = target: T2, XIAP-BIR3 (Homo sapiens, UniProt P98170); experiment: fluorescence polarization competition assay, XIAP-BIR3; format: binding
T2 construct: X-IAP BIR3 (amino acids residues 241-356); made in house; host or cells: Escherichia coli BL21 (DE3)
Method: as §1, §2, §3

[3] = target: T3, ML-IAP-BIR (Homo sapiens, UniProt Q96CA5); experiment: fluorescence polarization competition assay, ML-IAP-BIR; format: binding
T3 construct: made in house; host or cells: Escherichia coli BL21 (DE3)
T3 sequence (Q96CA5 63-179): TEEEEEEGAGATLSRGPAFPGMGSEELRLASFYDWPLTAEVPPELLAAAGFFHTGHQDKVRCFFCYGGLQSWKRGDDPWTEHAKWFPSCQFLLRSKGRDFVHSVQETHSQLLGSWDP
Method: as §1, §2, §3

[4] = target: T4, XIAP-BIR3 (human, UniProt P98170 241-356); experiment: fluorescence polarization competition, SMAC-FAM probe
T4 construct: range 241-356; Expressed in E. coli from pET15b and purified on Ni-agarose

[5] = target: T5, ML-IAP-BIR (human, UniProt Q96CA5 63-179); experiment: as above
T5 construct: range 63-179; Expressed in E. coli from pET15b and purified on Ni-agarose; also called BIR domain of ML-IAP
T5 sequence (looked up): T3 sequence (Q96CA5 63-179)

[6] = target: T6, XIAP-BIR2 (human, UniProt P98170 124-240); experiment: as above
T6 construct: range 124-240; The text says C213G, the vector name reads pET15b-XIAPBIR2C202AC218G; Expressed in E. coli from pET15b

[7] = target: T5, ML-IAP-BIR; experiment: fluorescence polarization competition, SMAC-FAM or Hid-FAM probe
Description: (§4) The Kᵢ values for the mutant peptides relative to the Kᵢ of [sequence]

[8] = target: T6, XIAP-BIR2; experiment: as above
Description: as §4

[9] = target: T4, XIAP-BIR3; experiment: as above
Description: as §4

[10] = tested on: U87MG glioma cells; conditions: athymic mice; Fulda et al. (2002); cited from earlier work
[11] = target: T4, XIAP-BIR3; experiment: fluorescence polarization competition, SMAC-FAM probe; remark: listed apart in the source
[12] = target: T5, ML-IAP-BIR; experiment: as above; remark: listed apart in the source
[13] = Table 4, P4 amino acid/phenylethylamine scan, Hid-FAM probe

T1 sequence (P98170 124-240 C202A/C213G): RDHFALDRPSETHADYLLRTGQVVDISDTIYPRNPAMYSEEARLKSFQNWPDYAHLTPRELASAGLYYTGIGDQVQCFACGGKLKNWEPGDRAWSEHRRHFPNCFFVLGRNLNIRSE
T6 sequence (P98170 124-240 C202A/C213G limits assumed): as the sequence (P98170 124-240 C202A/C213G) above
T2 sequence (P98170 241-356): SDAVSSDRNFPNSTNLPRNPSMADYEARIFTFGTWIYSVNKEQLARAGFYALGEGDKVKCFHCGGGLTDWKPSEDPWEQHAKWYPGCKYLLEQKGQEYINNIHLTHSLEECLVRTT
T4 sequence (P98170 241-356 limits assumed): as the sequence (P98170 241-356) above

ATAVIEKSE
Ki [1]: 5.7 µM
Ki [2]: > 64 µM
Ki [3]: 4.3 µM

CC(CNC(=O)[C@@H]1CCCN1C(=O)[C@@H](NC(=O)[C@H](C)N)C(C)C)c1ccccc1 (stereo partly shown) [AVPX31]
Ki [3, 13]: 0.27 µM

CC(C)[C@H](NC(=O)[C@H](C)N)C(=O)N1CCC[C@H]1C(=O)N[C@@H](CO)[C@@H](O)c1ccccc1 [AVPX25]
Ki [3, 13]: 1.5 µM

COc1ccc(Br)cc1CCNC(=O)[C@@H]1CCCN1C(=O)[C@@H](NC(=O)[C@H](C)N)C(C)C [AVPX36]
Ki [3, 13]: 1.3 µM

AIPFEEKSE
Ki [1]: 8.7 µM
Ki [2]: 0.59 µM
Ki [3]: 0.44 µM

CC(C)[C@H](NC(=O)[C@H](C)N)C(=O)NCC(=O)N[C@H](C(=O)N1CCC[C@H]1C(=O)N[C@@H](Cc1c[nH]c2ccccc12)C(=O)N[C@@H](CCCCN)C(=O)N[C@@H](CO)C(=O)N[C@@H](CCC(=O)O)C(=O)O)C(C)C
Ki [3]: 6 µM

CC(C)[C@H](NC(=O)[C@H](C)NC(=O)[C@H](CCC(=O)O)NC(=O)[C@H](C)N)C(=O)N1CCC[C@H]1C(=O)N[C@@H](Cc1c[nH]c2ccccc12)C(=O)N[C@@H](CCCCN)C(=O)N[C@@H](CO)C(=O)N[C@@H](CCC(=O)O)C(=O)O
Ki [1]: 3.6 µM
Ki [2]: > 64 µM

CCOc1ccccc1CCNC(=O)[C@@H]1CCCN1C(=O)[C@@H](NC(=O)[C@H](C)N)C(C)C [AVPX40]
Ki [3, 13]: 0.3 µM

CC(C)[C@H](NC(=O)[C@H](C)N)C(=O)N1CCC[C@H]1C(=O)NC[C@H](O)c1ccccc1 [AVPX33]
Ki [3, 13]: 0.31 µM

AVPWGLKSE
Ki [1]: 6.9 µM
Ki [2]: 0.54 µM
Ki [3]: 0.42 µM

CC(C)[C@H](NC(=O)[C@H](C)N)C(=O)N1CCC[C@H]1C(=O)NCC(c1ccccc1)c1ccccc1 [AVPX24]
Ki [3, 13]: 0.03 µM

CC(C)[C@H](NC(=O)[C@H](C)N)C(=O)N1CCC[C@H]1C(=O)N[C@H]1C[C@@H]1c1ccccc1 [AVPX28b]
Ki [2, 13]: 1.4 µM
Ki [3, 13]: 1 µM

CCOc1cccc(CCNC(=O)[C@@H]2CCCN2C(=O)[C@@H](NC(=O)[C@H](C)N)C(C)C)c1 [AVPX34]
Ki [3, 13]: 0.78 µM

CC(C)[C@H](NC(=O)[C@H](C)N)C(=O)N1CCC[C@H]1C(=O)NCCc1cccc(C(F)(F)F)c1 [AVPX26]
Ki [3, 13]: 1.9 µM

CC(C)[C@H](NC(=O)[C@H](C)NC(=O)[C@H](CCC(N)=O)NC(=O)[C@H](C)N)C(=O)N[C@@H](C)C(=O)N[C@@H](Cc1c[nH]c2ccccc12)C(=O)N[C@@H](CCCCN)C(=O)N[C@@H](CO)C(=O)N[C@@H](CCC(=O)O)C(=O)O
Ki [3]: 7 µM

CC[C@H](C)[C@H](NC(=O)[C@@H]1CCCN1C(=O)[C@@H](NC(=O)[C@H](C)N)C(C)C)C(=O)O [AVPI]
Ki [3, 13]: 0.33 µM

CC[C@H](C)[C@H](NC(=O)[C@H](Cc1c[nH]c2ccccc12)NC(=O)[C@@H]1CCCN1C(=O)[C@@H](NC(=O)[C@H](C)N)C(C)C)C(=O)NCC(=O)N[C@@H](CCCCN)C(=O)N[C@@H](CO)C(=O)N[C@@H](CCC(=O)O)C(=O)O
Ki [3]: 0.33 µM

COC[C@H](Cc1ccccc1)NC(=O)[C@@H]1CCCN1C(=O)[C@@H](NC(=O)[C@H](C)N)C(C)C [AVPX38]
Ki [3, 13]: 0.15 µM

CC(C)[C@H](NC(=O)[C@H](C)N)C(=O)N1CCC[C@H]1C(=O)NCCc1cccc(Cl)c1 [AVPX39]
Ki [3, 13]: 0.68 µM

CC(C)[C@H](NC(=O)[C@H](C)N)C(=O)N1CCC[C@H]1C(=O)NCCc1cccc(F)c1 [AVPX37]
Ki [3, 13]: 0.87 µM

CC(C)[C@H](NC(=O)[C@H](C)N)C(=O)N1CCC[C@H]1C(=O)N[C@H](CO)[C@H](O)c1ccccc1 [AVPX27]
Ki [3, 13]: 0.41 µM

CC(C)[C@H](NC(=O)[C@H](C)N)C(=O)N1CCC[C@H]1C(=O)N[C@@H](Cc1ccccc1)C(=O)O [AVPF] (H-AVPF-OH; N-terminus assumed)
Ki [3, 13]: 0.09 µM

CC(C)[C@H](NC(=O)[C@H](C)N)C(=O)N1CCC[C@H]1C(=O)N[C@H](CO)Cc1ccccc1 [AVPX32] (H-AVP[Phe(ol)]; N-terminus assumed)
Ki [1, 13]: 441 µM
Ki [2, 13]: 0.39 µM
Ki [3, 13]: 0.09 µM

AEAVAWKSE
Ki [1]: 2.5 µM
Ki [2]: > 64 µM
Ki [3]: 9.3 µM

CC(C)[C@H](NC(=O)[C@H](C)N)C(=O)N1CCC[C@H]1C(=O)N[C@@H]1C[C@H]1c1ccccc1 [AVPX28a]
Ki [2, 13]: 7.6 µM
Ki [3, 13]: 0.85 µM

AIPFEEKSE
Ki [4]: 0.59 µM
Ki [5]: 0.44 µM
Ki [6]: 8.7 µM

AVP[Phe(4-I)]AQKSE [AVPX10AQKSE]
Ki [7]: 0.45 µM
Ki [8]: 27.7 µM

AVP[Phe(4-SO3H)]AQKSE [AVPX2AQKSE]
Ki [9]: 8.5 µM

B1: APO2L/TRAIL: pro-apoptotic polypeptide APO2L/TRAIL (Accession Number: TN10_HUMAN) (protein, UniProt P50591 1-281, looked up)
Tumor necrosis factor ligand …: MAMMEVQGGPSLGQTCVLIVIFTVLLQSLCVAVTYVYFTNELKQMQDKYSKSGIACFLKEDDSYWDPNDEESMNSPCWQVKWQLRQLVRKMILRTSEETISTVQEKQQNISPLVRERGPQRVAAHITGTRGRSNTLSSPNSKNEKALGRKINSWESSRSGHSFLSNLHLRNGELVIHEKGFYYIYSQTYFRFQEEIKENTKNDKQMVQYIYKYTSYPDPILLMKSARNSCWSKDAEYGLYSIYQGGIFELKENDRIFVSVTNEHLIDMDHEASFFGAFLVG
effect on established tumor [10]: reduction in size of the tumor

AVGVPWKSE
Ki [5]: 6 µM

AVPWIGKSE
Ki [5]: 0.33 µM

AEAVAWKSE
fold weaker than the SMAC-based peptide [11]: > 100 fold
fold specificity for ML-IAP-BIR relative to XIAP-BIR3 [12]: > 10 fold
fold weaker than the SMAC-based peptide [12]: ~10 fold
Ki [5]: 9.3 µM
Ki [6]: 2.5 µM

AQAVAWKSE
Ki [5]: 7 µM

AEAVPWKSE
Ki [6]: 3.6 µM

AVPWGLKSE
Ki [4]: 0.54 µM
Ki [5]: 0.42 µM
Ki [6]: 6.9 µM

AVPXAQKSE (X7 at position 4 is cyclopentylalanine) [AVPX7AQKSE]
Ki [7]: 7.9 µM
Ki [8]: 229 µM

ATAVIEKSE
fold weaker than the SMAC-based peptide [11]: > 100 fold
fold specificity for ML-IAP-BIR relative to XIAP-BIR3 [12]: > 10 fold
fold weaker than the SMAC-based peptide [12]: ~10 fold
Ki [5]: 4.3 µM
Ki [6]: 5.7 µM
